One test concerns the target GST-Bcl-xL (Homo sapiens (Human), UniProt Q07817). The test can be described thus: TR-FRET binding assay, competition with F-Bak for Bcl-xL. The note with it: competition with F-Bak probe, GST-Bcl-xL 1 nM. On the procedure:
Determination of the utility of compounds having Formula (I) as binders to and inhibitors of anti-apoptotic Bcl-xL proteins was performed using the Time Resolved-Fluorescence Resonance Energy Transfer (TR-FRET) Assay. Tb-anti-GST antibody was purchased from Invitrogen (Catalog No. PV4216).
The measurement of competition of compounds of Formula (I) with F-Bak for a Bcl-2 family protein (Bcl-xL) binding site using a Time Resolved Fluorescence Resonance Energy Transfer (TR-FRET) binding assay:
Test compounds were serially diluted in DMSO starting at 50 μM (2× starting concentration; 10% DMSO) and 10 μL transferred into a 384-well plate.
The samples are then mixed on a shaker for 1 minute then incubated for an additional 2 hours at room temperature. For each assay plate, a probe/antibody and protein/antibody/probe mixture were included as a negative and a positive control, respectively. Fluorescence was measured on the ENVISION plate reader (Perkin Elmer) using a 340/35 nm excitation filter and 520/525 (F-Bak) and 495/510 nm (Tb-labeled anti-his antibody) emission filters. Dissociation constants (Ki) were determined using Wang's equation (Wang, Z. X. An 20 exact mathematical expression for describing competitive binding of two different ligands to protein molecule. FEBS Lett. 1995 360:111-114). The TR-FRET assay can be performed in the presence of varying concentrations of human serum (HS) or fetal bovine serum (FBS).

Test [1] has as its system mouse FL5.12 cells transfected with Bcl-XL. The test can be described thus: FL5.12 cellular assay (cell viability, CellTiter-Glo). The class given is cell-based. To be noted: IL-3-depleted, 3% FBS assay media, 24 hours, read-out: FL5.12 Bcl-xL, -IL3, EC 50. On the procedure:
The efficacy of the compounds of Formula (I) can also be determined in cell-based killing assays using a variety of cell lines and mouse tumor models. For example, their activity on cell viability can be assessed on a panel of cultured tumorigenic and non-tumorigenic cell lines, as well as primary mouse or human cell populations. In one exemplary set of conditions, mouse FL5.12 cells transfected with Bcl-XL were cultured under standard conditions in RPMI with 2 mM glutamine, 1% 100 mM sodium pyruvate, 2% 1 M HEPES, 4 μL/L of β-mercaptoethanol, 1% penicillinstreptomycin, 10% FBS, and 10% WEHI-3B conditioned media (for IL-3). For assaying the compound activity, the cells were exchanged into an IL-3-depleted deprivation media, which was identical to the growth media except for the absence of FBS and WEHI-3B conditional media, for 2 days. Then the cells were exchanged to 3% FBS assay media (RPMI with 2 mM glutamine, 1% 100 mM sodium pyruvate, 2% 1 M HEPES, 4 μL/L of β-mercaptoethanol, 1% penicillinstreptomycin, 3% FBS). Compounds in series dilutions were added, and the cells were cultured for 24 hours. Cell viability was assayed using the CellTiter-Glo assay (Promega Corp., Madison, Wis.) according to the manufacturer instructions. Individual determinations were the result of duplicate values.
Background: Cellular ATP, detected with luciferase, serves as a proxy for viable cell number.

Each structure is given as a SMILES string. A value given as a limit tells only on which side of the number the result lay.

GST-Bcl-xL, sequence (Q07817 whole entry): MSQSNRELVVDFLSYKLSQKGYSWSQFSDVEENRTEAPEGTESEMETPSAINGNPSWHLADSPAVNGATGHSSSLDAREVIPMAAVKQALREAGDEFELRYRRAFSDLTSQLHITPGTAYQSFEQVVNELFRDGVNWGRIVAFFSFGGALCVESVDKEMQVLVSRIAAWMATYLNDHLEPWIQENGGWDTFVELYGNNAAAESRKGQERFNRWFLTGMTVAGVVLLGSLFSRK

In the case of `CN(C)CCCNc1ccc(S(=O)(=O)NC(=O)c2nc(N3CCc4cccc(C(=O)Nc5nc6ccccc6s5)c4C3)sc2Cc2ccccc2)cc1S(=O)(=O)C(F)(F)F` [Example 8, N-(1,3-benzothiazol-2-yl)-2-(5-benzyl-4-{[(4-{[3-(dimethylamino)propyl]amino}-3-[(trifluoromethyl)sulfonyl]phenyl)sulfonyl]carbamoyl}-1,3-thiazol-2-yl)-1,2,3,4-tetrahydroisoquinoline-8-carboxamide], the affinity at GST-Bcl-xL, expressed as Ki, was 11 nM. Besides, in test [1], the EC50 was over 1000 nM.

As for `CN(C)CC[C@H](CSc1ccccc1)Nc1ccc(S(=O)(=O)NC(=O)c2csc(N3CCc4cccc(C(=O)Nc5nc6ccccc6s5)c4C3)n2)cc1S(=O)(=O)C(F)(F)F` [Example 12, N-(1,3-benzothiazol-2-yl)-2-(4-{[(4-{[(2R)-4-(dimethylamino)-1-(phenylsulfanyl)butan-2-yl]amino}-3-[(trifluoromethyl)sulfonyl]phenyl)sulfonyl]carbamoyl}-1,3-thiazol-2-yl)-1,2,3,4-tetrahydroisoquinoline-8-carboxamide], at GST-Bcl-xL, the Ki is 0.04 nM. The EC50 in test [1] was determined as 3 nM.

The compound `CN(C)CC[C@H](CSc1ccccc1)Nc1ccc(S(=O)(=O)NC(=O)c2csc(N3CCc4cccc(C(=O)Nc5nc6ccccc6s5)c4C3)n2)cc1[N+](=O)[O-]` [Example 1, N-(1,3-benzothiazol-2-yl)-2-(4-{[(4-{[(2R)-4-(dimethylamino)-1-(phenylsulfanyl)butan-2-yl]amino}-3-nitrophenyl)sulfonyl]carbamoyl}-1,3-thiazol-2-yl)-1,2,3,4-tetrahydroisoquinoline-8-carboxamide] yielded a Ki at GST-Bcl-xL of 0.1 nM. Moreover, in test [1], the EC50 was 56 nM.

In turn, `O=C(NS(=O)(=O)c1ccc(N[C@H](CCN2CCOCC2)CSc2ccccc2)c([N+](=O)[O-])c1)c1csc(N2CCc3cccc(C(=O)Nc4nc5ccccc5s4)c3C2)n1` [Example 10, N-(1,3-benzothiazol-2-yl)-2-(4-{[(4-{[(2R)-4-(morpholin-4-yl)-1-(phenylsulfanyl)butan-2-yl]amino}-3-nitrophenyl)sulfonyl]carbamoyl}-1,3-thiazol-2-yl)-1,2,3,4-tetrahydroisoquinoline-8-carboxamide] showed a Ki on GST-Bcl-xL of 0.14 nM.

On to `CN(C)CCCNc1ccc(S(=O)(=O)NC(=O)c2nc(N3CCc4cccc(C(=O)Nc5nc6ccccc6s5)c4C3)ccc2CCc2ccccc2)cc1[N+](=O)[O-]` [Example 6, N-(1,3-benzothiazol-2-yl)-2-[6-{[(4-{[3-(dimethylamino)propyl]amino}-3-nitrophenyl)sulfonyl]carbamoyl}-5-(2-phenylethyl)pyridin-2-yl]-1,2,3,4-tetrahydroisoquinoline-8-carboxamide], for which the Ki on GST-Bcl-xL was 17 nM. Also, the EC50 in test [1] is over 1000 nM.

Consider `CN(C)CCCNc1ccc(S(=O)(=O)NC(=O)c2nc(N3CCc4cccc(C(=O)Nc5nc6ccccc6s5)c4C3)sc2Cc2ccccc2)cc1[N+](=O)[O-]` [Example 9, N-(1,3-benzothiazol-2-yl)-2-(5-benzyl-4-{[(4-{[3-(dimethylamino)propyl]amino}-3-nitrophenyl)sulfonyl]carbamoyl}-1,3-thiazol-2-yl)-1,2,3,4-tetrahydroisoquinoline-8-carboxamide], for which the Ki at GST-Bcl-xL amounted to 41 nM. Moreover, the EC50 in test [1] was over 1000 nM.

At GST-Bcl-xL, `O=C(NS(=O)(=O)c1ccc(N[C@H](CCN2CCOCC2)CSc2ccccc2)c(S(=O)(=O)C(F)(F)F)c1)c1csc(N2CCc3cccc(C(=O)Nc4nc5ccccc5s4)c3C2)n1` [Example 2, N-(1,3-benzothiazol-2-yl)-2-(4-{[(4-{[(2R)-4-(morpholin-4-yl)-1-(phenylsulfanyl)butan-2-yl]amino}-3-[(trifluoromethyl)sulfonyl]phenyl)sulfonyl]carbamoyl}-1,3-thiazol-2-yl)-1,2,3,4-tetrahydroisoquinoline-8-carboxamide] showed a Ki of 0.1 nM. In addition, the EC50 in test [1] was 12 nM.

With `CN(C)CCCNc1ccc(S(=O)(=O)NC(=O)c2csc(N3CCc4cccc(C(=O)Nc5nc6ccccc6s5)c4C3)n2)cc1S(=O)(=O)C(F)(F)F` [Example 7, N-(1,3-benzothiazol-2-yl)-2-(4-{[(4-{[3-(dimethylamino)propyl]amino}-3-[(trifluoromethyl)sulfonyl]phenyl)sulfonyl]carbamoyl}-1,3-thiazol-2-yl)-1,2,3,4-tetrahydroisoquinoline-8-carboxamide], the Ki at GST-Bcl-xL turned out to be 1.7 nM. For the same compound, the EC50 in test [1] is over 1000 nM.

Regarding `CN(C)CCCNc1ccc(S(=O)(=O)NC(=O)c2nc(N3CCc4cccc(C(=O)Nc5nc6ccccc6s5)c4C3)sc2CCc2ccccc2)cc1S(=O)(=O)C(F)(F)F` [Example 11, N-(1,3-benzothiazol-2-yl)-2-[4-{[(4-{[3-(dimethylamino)propyl]amino}-3-[(trifluoromethyl)sulfonyl]phenyl)sulfonyl]carbamoyl}-5-(2-phenylethyl)-1,3-thiazol-2-yl]-1,2,3,4-tetrahydroisoquinoline-8-carboxamide], the Ki at GST-Bcl-xL turned out to be 0.06 nM. In addition, the EC50 in test [1] is 22 nM.

Compound `CN(C)CCCNc1ccc(S(=O)(=O)NC(=O)c2nc(N3CCc4cccc(C(=O)Nc5nc6ccccc6s5)c4C3)ccc2CCCc2ccccc2)cc1[N+](=O)[O-]` [Example 4, N-(1,3-benzothiazol-2-yl)-2-[6-{[(4-{[3-(dimethylamino)propyl]amino}-3-nitrophenyl)sulfonyl]carbamoyl}-5-(3-phenylpropyl)pyridin-2-yl]-1,2,3,4-tetrahydroisoquinoline-8-carboxamide] returned a Ki on GST-Bcl-xL of 9 nM. In addition, the EC50 in test [1] is over 1000 nM.

The compound `CN(C)CCCNc1ccc(S(=O)(=O)NC(=O)c2nc(N3CCc4cccc(C(=O)Nc5nc6ccccc6s5)c4C3)sc2CCCc2ccccc2)cc1[N+](=O)[O-]` [Example 15, N-(1,3-benzothiazol-2-yl)-2-[4-{[(4-{[3-(dimethylamino)propyl]amino}-3-nitrophenyl)sulfonyl]carbamoyl}-5-(3-phenylpropyl)-1,3-thiazol-2-yl]-1,2,3,4-tetrahydroisoquinoline-8-carboxamide] displayed a Ki on GST-Bcl-xL of 5 nM.

Take `CN(C)CCCNc1ccc(S(=O)(=O)NC(=O)c2nc(N3CCc4cccc(C(=O)Nc5nc6ccccc6s5)c4C3)sc2CCc2ccccc2)cc1[N+](=O)[O-]` [Example 13, N-(1,3-benzothiazol-2-yl)-2-[4-{[(4-{[3-(dimethylamino)propyl]amino}-3-nitrophenyl)sulfonyl]carbamoyl}-5-(2-phenylethyl)-1,3-thiazol-2-yl]-1,2,3,4-tetrahydroisoquinoline-8-carboxamide]: the Ki on GST-Bcl-xL is 0.8 nM. In test [1], the EC50 is 94 nM.

In the case of `CN(C)CCCNc1ccc(S(=O)(=O)NC(=O)c2nc(N3CCc4cccc(C(=O)Nc5nc6ccccc6s5)c4C3)ccc2CCCc2ccccc2)cc1S(=O)(=O)C(F)(F)F` [Example 5, N-(1,3-benzothiazol-2-yl)-2-[6-{[(4-{[3-(dimethylamino)propyl]amino}-3-[(trifluoromethyl)sulfonyl]phenyl)sulfonyl]carbamoyl}-5-(3-phenylpropyl)pyridin-2-yl]-1,2,3,4-tetrahydroisoquinoline-8-carboxamide], affinity at GST-Bcl-xL was put at a Ki of 48 nM. In test [1], the EC50 is over 1000 nM.

As for `O=C(NS(=O)(=O)c1ccc(N[C@H](CCO)CSc2ccccc2)c(S(=O)(=O)C(F)(F)F)c1)c1csc(N2CCc3cccc(C(=O)Nc4nc5ccccc5s4)c3C2)n1` [Example 14, N-(1,3-benzothiazol-2-yl)-2-(4-{[(4-{[(2R)-4-hydroxy-1-(phenylsulfanyl)butan-2-yl]amino}-3-[(trifluoromethyl)sulfonyl]phenyl)sulfonyl]carbamoyl}-1,3-thiazol-2-yl)-1,2,3,4-tetrahydroisoquinoline-8-carboxamide], the Ki at GST-Bcl-xL is 0.2 nM.

As for `O=C(NS(=O)(=O)c1ccc(N[C@H](CCN2CCOCC2)CSc2ccccc2)c(S(=O)(=O)C(F)(F)F)c1)c1cccc(N2CCc3cccc(C(=O)Nc4nc5ccccc5s4)c3C2)n1` [Example 3, N-(1,3-benzothiazol-2-yl)-2-(6-{[(4-{[(2R)-4-(morpholin-4-yl)-1-(phenylsulfanyl)butan-2-yl]amino}-3-[(trifluoromethyl)sulfonyl]phenyl)sulfonyl]carbamoyl}pyridin-2-yl)-1,2,3,4-tetrahydroisoquinoline-8-carboxamide], at GST-Bcl-xL, the Ki was 12 nM. For the same compound, the EC50 in test [1] was over 1000 nM.

Broadly, the Ki is a measure of affinity in units of concentration, obtained from inhibition or displacement.

The record behind these values is US8883784B2, “Apoptosis-inducing agents for the treatment of cancer and immune and autoimmune diseases” (AbbVie Inc., priority 2012, dated 2014).
